{"source": "ChEMBL document CHEMBL3875218", "about": "“Bifunctional conjugates with potent inhibitory activity towards cyclooxygenase and histone deacetylase” (Bioorg Med Chem, 2017)", "key": {"[1]": {"biological_target": "T1, Prostaglandin G/H synthase 1 (Ovis aries) (UniProt P05979)", "T1 sequence (whole entry)": "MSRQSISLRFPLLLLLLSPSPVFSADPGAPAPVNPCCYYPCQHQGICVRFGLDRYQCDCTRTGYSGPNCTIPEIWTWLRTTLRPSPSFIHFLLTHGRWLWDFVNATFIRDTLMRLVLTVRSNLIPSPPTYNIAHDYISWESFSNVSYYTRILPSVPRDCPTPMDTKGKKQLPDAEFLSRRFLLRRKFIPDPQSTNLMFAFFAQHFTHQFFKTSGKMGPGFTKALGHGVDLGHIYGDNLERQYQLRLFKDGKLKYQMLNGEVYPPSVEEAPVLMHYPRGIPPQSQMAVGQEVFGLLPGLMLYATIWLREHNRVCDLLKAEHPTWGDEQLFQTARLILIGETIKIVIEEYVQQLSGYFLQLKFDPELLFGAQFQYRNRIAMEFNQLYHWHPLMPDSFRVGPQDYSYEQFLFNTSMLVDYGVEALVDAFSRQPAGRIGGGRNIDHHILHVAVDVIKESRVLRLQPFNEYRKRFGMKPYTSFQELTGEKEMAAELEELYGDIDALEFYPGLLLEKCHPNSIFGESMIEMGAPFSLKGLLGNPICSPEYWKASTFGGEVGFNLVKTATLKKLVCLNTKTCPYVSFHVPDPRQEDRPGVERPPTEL", "assay": "Inhibition of sheep COX1 at 10 uM using arachidonic acid as substrate preincubated for 15 mins followed by substrate addition for 2 mins by Cayman based fluorescence assay"}, "[2]": {"biological_target": "T2, Prostaglandin G/H synthase 2 (Homo sapiens) (UniProt P35354)", "T2 sequence (whole entry)": "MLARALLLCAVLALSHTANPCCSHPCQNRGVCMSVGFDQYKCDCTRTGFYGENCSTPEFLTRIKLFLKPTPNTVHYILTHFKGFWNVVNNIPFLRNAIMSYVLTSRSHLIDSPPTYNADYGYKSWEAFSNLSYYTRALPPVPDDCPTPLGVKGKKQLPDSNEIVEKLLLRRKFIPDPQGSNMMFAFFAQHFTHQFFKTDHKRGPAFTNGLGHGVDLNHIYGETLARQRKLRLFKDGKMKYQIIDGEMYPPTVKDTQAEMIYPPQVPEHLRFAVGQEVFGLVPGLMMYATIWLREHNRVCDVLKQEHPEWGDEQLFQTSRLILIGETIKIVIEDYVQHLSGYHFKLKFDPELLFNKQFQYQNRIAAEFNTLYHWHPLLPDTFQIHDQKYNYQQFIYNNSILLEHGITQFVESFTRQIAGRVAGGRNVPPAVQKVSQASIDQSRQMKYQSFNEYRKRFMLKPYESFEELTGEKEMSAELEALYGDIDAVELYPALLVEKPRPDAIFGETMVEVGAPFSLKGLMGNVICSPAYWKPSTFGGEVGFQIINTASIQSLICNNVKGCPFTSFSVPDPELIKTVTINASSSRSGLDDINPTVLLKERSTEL", "assay": "Inhibition of recombinant human COX2 at 10 uM using arachidonic acid as substrate preincubated for 15 mins followed by substrate addition for 2 mins by Cayman based fluorescence assay"}, "[3]": {"biological_target": "T3, Prostaglandin G/H synthase 1 (Ovis aries, UniProt P05979)", "T3 sequence (P05979 whole entry)": "T1 sequence (whole entry)", "assay": "Inhibition of sheep COX1 using arachidonic acid as substrate preincubated for 15 mins followed by substrate addition for 2 mins by Cayman based fluorescence assay"}, "LNCaP [4]": {"system": "LNCaP", "assay": "Inhibition of HDAC in human LNCAP cells assessed as down regulation of COX2 expression at 2 to 10 uM after 24 hrs by Western blot analysis", "format": "cell-based"}, "LNCaP [5]": {"system": "LNCaP", "assay": "Induction of cell cycle arrest in human LNCAP cells assessed as accumulation at lesser G1 phase at 2.5 uM after 24 hrs by propidium iodide staining based FACS analysis (reference value: 1.59%)", "format": "functional"}, "[6]": {"assay": "Cytotoxicity against human A549 cells assessed as cell growth inhibition after 72 hrs by MTT assay", "format": "functional, cell-based", "details": "A549, 72 h"}, "[7]": {"assay": "Cytotoxicity against human HCT116 cells assessed as cell growth inhibition after 72 hrs by MTT assay", "format": "functional, cell-based", "details": "HCT-116, 72 h"}, "[8]": {"assay": "Cytotoxicity against human LNCAP cells assessed as cell growth inhibition after 72 hrs by MTT assay", "format": "functional, cell-based"}, "[9]": {"assay": "Cytotoxicity against African green monkey Vero cells assessed as cell growth inhibition after 72 hrs by MTT assay", "format": "toxicity, cell-based", "details": "African green monkey (Chlorocebus sabaeus)"}, "LNCaP [10]": {"system": "LNCaP", "assay": "Inhibition of HDAC in human LNCAP cells assessed as down regulation of androgen receptor expression after 24 hrs by Western blot analysis", "format": "cell-based"}, "LNCaP [11]": {"system": "LNCaP", "assay": "Inhibition of HDAC in human LNCAP cells assessed as down regulation of COX2 expression at 2 uM after 24 hrs by Western blot analysis", "format": "cell-based"}, "LNCaP [12]": {"system": "LNCaP", "assay": "Induction of cell cycle arrest in human LNCAP cells assessed as accumulation at S phase at 2.5 uM after 24 hrs by propidium iodide staining based FACS analysis (reference value: […])", "format": "functional"}, "LNCaP [13]": {"system": "LNCaP", "assay": "Induction of cell cycle arrest in human LNCAP cells assessed as accumulation at G2 phase at 2.5 uM after 24 hrs by propidium iodide staining based FACS analysis (reference value: 1.08%)", "format": "functional"}}, "note": "Active and inactive are the calls of the source. The rule behind the calls is not given here.", "data": [{"smiles": "COc1ccc2c(c1)c(CC(=O)NCCCCCCC(=O)NO)c(C)n2C(=O)c1ccc(Cl)cc1", "values": [{"measurement": "inhibition", "setting": "[1]", "result": 22.8, "unit": "%"}, {"measurement": "inhibition", "setting": "[2]", "result": 98.1, "unit": "%"}, {"measurement": "IC50", "setting": "[3]", "result": 21, "unit": "µM"}, {"measurement": "inhibition", "setting": "LNCaP [4]", "result": "Active"}, {"measurement": "Activity", "setting": "LNCaP [5]", "result": 1.95, "unit": "%"}]}, {"smiles": "Cc1ccc(-c2cc(C(F)(F)F)nn2-c2ccc(S(=O)(=O)NCCCCCCC(=O)NO)cc2)cc1", "values": [{"measurement": "inhibition", "setting": "[1]", "result": 61.4, "unit": "%"}, {"measurement": "inhibition", "setting": "[2]", "result": 100, "unit": "%"}, {"measurement": "IC50", "setting": "[3]", "result": 3.57, "unit": "µM"}, {"measurement": "IC50", "setting": "[6]", "result": 8, "unit": "µM"}, {"measurement": "IC50", "setting": "[7]", "result": 3.38, "unit": "µM"}, {"measurement": "IC50", "setting": "[8]", "result": 2.19, "unit": "µM"}, {"measurement": "IC50 at 72 h", "setting": "[9]", "result": 5.53, "unit": "µM"}, {"measurement": "inhibition", "setting": "LNCaP [10]", "result": "Dose-dependent effect"}, {"measurement": "inhibition", "setting": "LNCaP [11]", "result": "Active"}, {"measurement": "Activity", "setting": "LNCaP [5]", "result": -0.32, "unit": "%"}, {"measurement": "Activity", "setting": "LNCaP [12]", "result": 31.7, "unit": "%"}, {"measurement": "Activity", "setting": "LNCaP [13]", "result": 1.4, "unit": "%"}]}]}
